The source of these data is ChEMBL document CHEMBL1145763, “Design, synthesis and photochemical properties of caged bile acids” (Bioorg Med Chem Lett, 2003).

The nature of the series: Solubility in 100 mM Tris pH(8.5)/ 30% PEG 6000/200 mM NaOAc. It counts as physicochemical.

Values after ≈ are worked out from the molar mass of the structure shown.

By solubility is commonly meant the concentration that dissolves in the medium under given conditions. Lower therefore signals little dissolved substance.

`COc1cc(CO[C@@H]2CC[C@@]3(C)C(C2)C[C@@H](O)[C@H]2[C@@H]4CC[C@H]([C@H](C)CCC(=O)O)[C@@]4(C)[C@@H](O)C[C@@H]23)c([N+](=O)[O-])cc1OC` (some centres undefined) showed a solubility of 1000 µM (≈ 604 µg/mL).
Regarding `C[C@H](CCC(=O)NCC(=O)O)[C@H]1CC[C@H]2[C@@H]3[C@H](O)CC4C[C@H](OCc5ccccc5[N+](=O)[O-])CC[C@]4(C)[C@H]3CC[C@]12C` (some centres undefined), the concentration in solution (solubility) came to 4000 µM (≈ 2340 µg/mL).
`C[C@H](CCC(=O)O)[C@H]1CC[C@H]2[C@@H]3[C@H](O)CC4C[C@H](OCc5ccccc5[N+](=O)[O-])CC[C@]4(C)[C@H]3CC[C@]12C` (some centres undefined) showed a solubility of 5000 µM (≈ 2640 µg/mL). This solubility and that of the compound before are within 1.5-fold of each other.
In the case of `C[C@H](CCC(=O)O)[C@H]1CC[C@H]2[C@@H]3[C@H](O)CC4C[C@H](OCc5ccccc5[N+](=O)[O-])CC[C@]4(C)[C@H]3C[C@H](O)[C@]12C` (some centres undefined), the solubility is 2000 µM (≈ 1090 µg/mL).
